Assay results as given in US20050059605A1, “Chemically modified metabolites of regulatory peptides and methods of producing and using same” (priority 2003, published 2005).
Where no end group is shown, it is not given here.

What was measured:
[1] = test system: whole anterior pituitary culture; assay: cAMP production stimulated by GRF analogues in whole anterior pituitary culture; format: cell-based; conditions: 10^−6 M, compared to analogue 356, FIG. 6
Description: For comparison, a DPPIV resistant analogue of GRF (analogue 280) was shown.

RINm5F cells = assay: Dose response curves of GLP-1 analogues on cAMP production in RINm5F cells; format: cell-based, rat; conditions: n=3, FIG. 4
Method: RINm5F cells (ATCC # CRL-2058) were grown according to the manufacturer's specifications. Cells from […] confluent flasks were trypsinized and counted. 20 000 cells/well were seeded in 96-well plate (White Costar plate with clear bottom) in 100 μl media. Cells were grown four days past confluence before being using for experiments.
Stock solutions of agents tested were prepared in DDH2O+0.1% BSA at a concentration of 1 mM (correcting for peptide purity and peptide content when available) immediately prior to the beginning of the assay. From the stock solutions, 2× dilutions (2×10^−12 M to 2×10^−5 M) were made in RPMI medium containing 0.5 mM IBMX. Cell culture media was gently removed from wells. Cells were then washed once with RPMI containing 0.5 mM IBMX and then pre-incubated in 100 μl RPMI/0.5 mM IBMX at 37° C. for 10 minutes. After pre-incubation, 100 μl of each 2× dilutions were added to wells in triplicates and incubated at 37° C. for 40 minutes. At the end of incubation, the supernatant was collected and assayed for cAMP using a radioimmunoassay kit (DPC). Radioactive counts were transformed into cAMP amounts using a standard curve. cAMP values were corrected for total protein content in the corresponding wells determined by Coomassie blue assay. cAMP values were expressed as mean±SEM in pmol/mg protein (FIG. 2). […]

C57BL/ks db/db mice = assay: Glucose levels after subcutaneous injection in fasted and re-fed db/db mice; format: in vivo; conditions: 25 μg/mice (500 μg/kg) subcutaneous, 30 minutes of feeding subsequent to overnight fasting, compared to native GLP-1, FIG. 5
[2] = test system: freshly isolated hepatocytes; assay: Effects of glucagon and analogues on freshly isolated hepatocyte cAMP production; format: cell-based, rat; conditions: 10^−7M, n=2, FIG. 3, compared to analogue 357 or glucagon
Method: All experimental procedures were performed under isoflurane (2.5%) anesthesia according to an experimental protocol approved by Ste-Justine Hospital (Montreal) animal care committee. […] The animal was perfused through the heart to remove a maximal amount of blood from the liver (acquire a light brown color). A catheter (PE-90) was then inserted in the portal vein and the liver further perfused to eliminate any trace of blood. The hepatic artery was also cannulated (PE-50) and perfused. The liver was then carefully removed from the abdominal cavity and placed into a 250 ml beaker. Digesting HEPES buffer containing 9650U collagenase and 20U elastase at 37° C. was placed into the beaker and circulated in a closed loop via the catheters for 10 minutes at maximal speed. The buffer was replaced with a fresh solution of collagenase and elastase and perfusion continues for 10 additional minutes. […]
Stimulation studies were performed at a concentration of 1 million cells per tube; 5 minutes of pre-treatment with 0.1 mM IBMX, with or without glucagon agonists (10^−7M) compared to treatment with glucagon (10^−7M). […] The cAMP levels in the tubes were determined using a radioimmunoassay kit (Amersham DPC kit). The data are expressed as pmol cAMP/million cells.

Q: How did the cAMP response [1] turn out when “4-Methoxyphenethylamine-mGly-GRF-1 (3-29) amide [Compound 358]” was run?
A: significantly greater cAMP response

Q: With “4-Methoxyphenetylamine-mGly-GLP-1 (9-36) amide [Compound 288]” as the substance, how does the cAMP production (RINm5F cells) read?
A: increased CAMP production

Q: What about the “glucose levels (hypoglycemic response)” value (C57BL/ks db/db mice) of the same substance?
A: more significant hypoglycemic response

Q: For “Glucagon (3-29) amide (QGTFTSDYSKYLDSRRAQDFVQWLMNT-NH2; UniProt P01275 55-81, looked up, fragment) [Compound 357, glucagon analogue lacking the His-Ser dipeptide, reference compound]”, which “intracellular cAMP levels” value [2] is on record?
A: negligible response

Q: Which “intracellular cAMP levels” value [2] does the source give for “4-Methoxyphenethylamine-mGly-Glucagon (3-29) amide [Compound 361]” here?
A: significantly higher intracellular cAMP levels
